Bounds are passed on as bounds.

Data on three molecules can be found in US4665078A, “2-(3-amino-5-halo-2-pyridylalkylamino)-pyrimidones useful as histamine H1-antagonists” (Smith Kline & French Laboratories Limited, priority 1983, dated 1987).

Assay [1] deals with histamine H1-receptor. Description: inhibition of H1-agonist induced reduction of blood pressure in the anaesthetised cat. Conditions: intravenous (femoral veins), 2-(2-aminoethyl)pyridine-induced reduction in blood pressure. It counts as in vivo. On the procedure:
Cats of either sex weighing between 2 and 3 kg were starved overnight and anaesthetised with sodium pentabarbitone (60 mg/kg i.p.). The trachea was cannulated and blood pressure was measured in a femoral artery. The compound under investigation was administered by cannulae in the right and left femoral veins. Anaesthetic was administered as required into one brachial vein. Dose-response curves were constructed by administering a standard H1 -agonist, 2-(2-aminoethyl)pyridine in increasing dose from 10^-8 mol/kg to 10^-5 mol/kg. The 2-(2-aminoethyl)pyridine-induced reduction in blood pressure was measured. The effect of the antagonists can be quantified by displacement of the 2-(2-aminoethyl)pyridine dose-response curve expressed as a dose-ratio. The compounds of Examples 1 and 2 caused displacement of the dose-responsecurves with a dose-ratio of 10 at doses of 0.06 and 0.0058 micromole/kg respectively.

Assay [2] deals with T1, histamine H1-receptor (Cavia porcellus, UniProt P31389).
T1 construct: an isolated portion of the guinea pig ileum is secured under tension; from tissue; host or cells: isolated guinea pig ileum
Description: inhibition of histamine induced bronchoconstriction in anaesthetised guinea pigs. It counts as in vivo. Conditions: i.v., anaesthetised guinea pig, histamine curve 5 minutes after antagonist. On the procedure: Guinea pigs of either sex are anesthetised by intraperitoneal injection of sodium pentobarbitone, 90 mg/kg. The trachea is cannulated. The animal is respired artificially with a fixed volume of air just adequate to inflate the lungs. The pressure needed to inflate the lungs is monitored from the respiratory system using a low pressure transducer. Intranvenous injection of histamine causes dose-dependent increases in the pressure to inflate the lungs reflecting the bronchoconstrictor action of histamine. Responses to histamine can be antagonised using histamine H1 -receptor antagonists.
Dose-response curves to histamine are established at 20, 40, 80, 160 and 320 nmols/kg. Antagonists are then administered by intravenous injection and 5 minutes later a new histamine dose-response curve is established increasing the doses of histamine as necessary. The effect of the antagonist can be quantified by the displacement, to the right, of the histamine dose-response curve, expressed as a dose-ratio. A series of doses of antagonists may be given to each animal allowing calculation of dose-ratios for each dose of antagonist. The compounds of Examples 1 and 2 hereafter cause displacement of histamine dose-response curves with a dose-ratio of 10 at doses of less than 0.8 micromole kg^-1 i.v.

Another assay deals with T2, histamine H2-receptor (Cavia porcellus, UniProt P47747).
T2 construct: a spontaneously beating isolated portion of the guinea pig right atrium is secured under tension; from tissue; host or cells: isolated guinea pig right atrium
Description: guinea pig atrium test (in vitro histamine H2-antagonist activity). Conditions: isolated guinea pig right atrium, histamine-induced rate of beating, 60 min contact, 37° C.; read-out: pA2 value (converted). The method, then:
In this test a spontaneously beating isolated portion of the guinea pig right atrium is secured under tension (300 mg) between an anchorage and a transducer in a 15 ml tissue bath and immersed in McEwens solution with constant aeration at a temperature of 37° C. The output from the transducer is amplified. Output is in turn fed to a flat bed recorder. Measured amounts of histamine are added to the tissue bath so that the histamine concentration increases step-wise until the rate of beating reaches a maximum. The tissue bath is washed out and filled with fresh McEwens solution containing compound under test. The solution is left in contact with the tissue for 60 min. and measured amounts of histamine are added again until a maximum rate is recorded. The assay is repeated with increasing concentrations of test compound and the dose of histamine giving 50% of maximum rate is noted. A dose ratio (DR) was calculated by comparing the concentrations of histamine required to produce 50% maximum response in the absence and in the presence of the antagonist. A plot of Log DR-1 against Log D (the concentration of compound under test) is made and the point of intersection with the Log (DR-1) ordinate is taken as the measure of the activity (pA2 value).

The target in assay [3] is T1, histamine H1-receptor. Description: guinea pig ileum test (in vitro histamine H1-antagonist activity). Conditions: isolated guinea pig ileum, histamine-induced contraction, 8 min contact, 30° C.; read-out: pA2 value (converted). The method, then: In this test an isolated portion of the guinea pig ileum is secured under tension (500 mg) between an anchorage and a transducer in a 10 ml tissue bath and immersed in magnesium free Tyrode solution with constant aeration at a temperature of 30° C. The output from the transducer is amplified. The amplified output is in turn fed to a flat bed recorder. Measured amounts of histamine are added to the tissue bath so that the histamine concentration increases step-wise until the force of the contraction reaches a maximum. The tissue bath is washed out and filled with fresh magnesium free Tyrode solution containing compound under test. The solution is left in contact with the tissue for 8 min. and measured amounts of histamine are added again until a maximum contraction is recorded. The assay is repeated with increasing concentrations of test compound and the dose of histamine giving 50% of maximum contraction is noted. A dose ratio (DR) was calculated by comparing the concentrations of histamine required to produce 50% maximum response in the absence and in the presence of the antagonist. A plot of Log DR-1 against Log D (the concentration of compound under test) is made and the point of intersection with the Log (DR-1) ordinate is taken as the measure of the activity (pA2 value).

T1 sequence (P31389 whole entry): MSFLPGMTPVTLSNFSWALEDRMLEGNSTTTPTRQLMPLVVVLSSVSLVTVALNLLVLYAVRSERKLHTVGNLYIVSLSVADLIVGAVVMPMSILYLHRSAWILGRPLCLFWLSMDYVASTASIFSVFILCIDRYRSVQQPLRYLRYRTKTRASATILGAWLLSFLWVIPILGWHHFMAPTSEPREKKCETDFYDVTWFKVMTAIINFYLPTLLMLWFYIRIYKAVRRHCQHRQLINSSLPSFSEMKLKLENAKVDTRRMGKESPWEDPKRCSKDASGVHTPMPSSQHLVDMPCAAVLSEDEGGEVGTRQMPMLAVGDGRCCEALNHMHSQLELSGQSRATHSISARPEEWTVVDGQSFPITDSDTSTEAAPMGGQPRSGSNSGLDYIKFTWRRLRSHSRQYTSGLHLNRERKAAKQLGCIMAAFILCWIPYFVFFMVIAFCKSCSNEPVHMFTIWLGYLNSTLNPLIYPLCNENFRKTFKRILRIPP
T2 sequence (P47747 whole entry): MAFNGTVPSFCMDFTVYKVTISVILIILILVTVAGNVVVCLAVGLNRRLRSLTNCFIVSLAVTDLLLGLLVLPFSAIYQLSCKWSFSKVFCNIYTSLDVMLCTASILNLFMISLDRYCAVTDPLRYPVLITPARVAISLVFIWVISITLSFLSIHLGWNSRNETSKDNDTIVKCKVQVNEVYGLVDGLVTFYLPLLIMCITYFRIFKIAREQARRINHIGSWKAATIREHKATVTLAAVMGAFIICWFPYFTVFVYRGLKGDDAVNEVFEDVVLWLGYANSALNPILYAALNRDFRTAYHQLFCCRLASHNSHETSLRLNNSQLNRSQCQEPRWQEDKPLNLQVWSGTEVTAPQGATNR

On to `Cc1ccc(Cc2cnc(NCCCCc3ncc(Br)cc3C)[nH]c2=O)cn1` [2-[4-(5-bromo-3-methylpyrid-2-yl)butylamino]-5-(6-methylpyrid-3-ylmethyl)-4-pyrimidone, reference compound], for which, in the assay with histamine H1-receptor [1], the “dose causing displacement of the 2-(2-aminoethyl)pyridine dose-response curve with a dose-ratio of 10” value worked out at 0.215 µmol/kg.
Consider `Cc1ccc(Cc2cnc(NCCCCc3ncc(Br)cc3N)[nH]c2=O)cn1` [Example 1, 2-[4-(5-bromo-3-aminopyrid-2-yl)butylamino]-5-(6-methylpyrid-3-ylmethyl) 4-pyrimidone], for which, at histamine H1-receptor [2], the “dose causing displacement of histamine dose-response curves with a dose-ratio of 10” value is recorded as “less than 0.8 micromole kg^-1”. For the same molecule, the “dose causing displacement of the 2-(2-aminoethyl)pyridine dose-response curve with a dose-ratio of 10” value with histamine H1-receptor [1] was 0.06 µmol/kg. Besides, the Kb on histamine H2-receptor is more than 1000 nM; on histamine H1-receptor [3], less than 10 nM.
Regarding `Nc1cc(Br)cnc1CCCCNc1ncc(Cc2cc[n+]([O-])cc2)c(=O)[nH]1` [Example 2, 2-[4-(5-bromo-3-aminopyrid-2yl)butylamino]-5-(N-oxopyrid-4-ylmethyl)-4-pyrimidone], the “dose causing displacement of histamine dose-response curves with a dose-ratio of 10” value on histamine H1-receptor [2] was “less than 0.8 micromole kg^-1”. For the same molecule, the “dose causing displacement of the 2-(2-aminoethyl)pyridine dose-response curve with a dose-ratio of 10” value in the assay on histamine H1-receptor [1] was found to be 0.0058 µmol/kg. Further, the Kb was more than 1000 nM at histamine H2-receptor and less than 10 nM on histamine H1-receptor [3].
